The text below walks through data of patent US6875425B2, “Skin lightening agents, compositions and methods” (Unilever Home & Personal Care USA, priority 2002, dated 2005).

The assay has as its system mushroom tyrosinase. As to the kind of experiment: Mushroom Tyrosinase Assay. The format is biochemical. As to conditions: for % of Control (Melanin Synthesis): L-DOPA substrate, slope of 475-nm absorbency vs. ethanol control. The method, then: Mushroom tyrosinase inhibition is indicative of reduction in melanin synthesis, thereby showing skin lightening effect. […] Following an initial measurement of background absorbency at 475-nm, 20 microliters of mushroom tyrosinase (Sigma T-7755; 6050 units/ml) was added and incubated at room temperature. Absorbency is read at 475-nm over the following time points: 0, 2, 4, and 6.5 minutes. The data is plotted as 475-nm absorbency vs. time (minutes) and the slope of the line is calculated (ΔAbs 475nm/min). Values are expressed as the percentage of the respective untreated ethanol control reaction. [formula]

Take `Oc1ccc(C2SCCCS2)c(O)c1` [1,3-di-Thiane Resorcinol]: the “% of Control (Melanin Synthesis)” value runs as follows: (0.1 uM compound) 87 % of Control; (1 uM compound) 57 % of Control; (10 uM compound) 48 % of Control; (100 uM compound) 47 % of Control.
As to `CCc1ccc(O)cc1O` [4-Ethyl Resorcinol], the “% of Control (Melanin Synthesis)” value is listed as 73 % of Control (0.1 uM compound), 46 % of Control (1 uM compound), 31 % of Control (10 uM compound) and 21 % of Control (100 uM compound).
For the compound `Oc1cccc(O)c1` [Resorcinol], the “% of Control (Melanin Synthesis)” value is, setting by setting: (0.1 uM compound) 97 % of Control; (1 uM compound) 98 % of Control; (10 uM compound) 98 % of Control; (100 uM compound) 100 % of Control. The “activity in the mushroom tyrosinase assay (in words)” value (summary of Table 8) was “does not display activity”.
